In patent US20170231966A1, “INHIBITION OF IL-2 PRODUCTION” (AYUMI PHARMACEUTICAL CORPORATION, priority 2013, published 2017):
Counter-ions that a name gives are not always drawn.

Test system: transcriptional activation of IL-2
Test: IL-2 transcriptional activation Luciferase Assay (IL-2 Gene Promoter Reporter Vector) in A23187-stimulated Jurkat cells
Type: cell-based, human
Conditions: for Action on A23187-accelerated transcriptional activation of IL-2 (in words) / Inhibition ratio (transcriptional activation of IL-2), Table 2 / Inhibiting ratio of IL-2 transcriptional activation: A23187-stimulated Jurkat cells; for Luc activity value, No stimulation / Luc activity value, Stimulated by A23187: Jurkat cells, 24 hours, average ± standard deviation, n=3; for Luc activity value, No stimulation: no A23187, DMSO = 1; for Luc activity value, Stimulated by A23187: A23187 0.3 μM, unstimulated DMSO = 1

CCOCCN(CCCOc1ccc(OC)cc1C1Sc2cc(Cl)ccc2N1C(C)=O)C(C)C.Cl (racemic) [Compound 3, (±)-3-acetyl-6-chloro-2-[2-(3-(N-(2-ethoxyethyl)-N-isopropylamino)propoxy)-5-methoxyphenyl]benzothiazoline hydrochloride]
Action on A23187-accelerated transcriptional activation of IL-2 (in words): inhibited transcriptional activation of IL-2 | Inhibition ratio (transcriptional activation of IL-2), Table 2 (compound 10 μM): 77%

CCOCCN(CCCOc1ccc(OC)cc1C1Sc2cc(Cl)ccc2N1C(C)=O)C(C)C (single isomer, unassigned; (+)) [Compound 2, (+)-3-acetyl-6-chloro-2-[2-(3-(N-(2-ethoxyethyl)-N-isopropylamino)propoxy)-5-methoxyphenyl]benzothiazoline (+O,O′-diacetyl-L-tartaric acid salt]
Action on A23187-accelerated transcriptional activation of IL-2 (in words): statistically significant inhibiting action | Luc activity value, No stimulation (compound 0.3 μM): 0.8842 ± 0.1143 | Luc activity value, Stimulated by A23187 (compound 0.3 μM): 81.9510 ± 30.4537 | Luc activity value, No stimulation (compound 1 μM): 0.9410 ± 0.0598 | Luc activity value, Stimulated by A23187 (compound 1 μM): 65.0761 ± 13.2402 | Luc activity value, No stimulation (compound 10 μM): 0.9469 ± 0.0928 | Luc activity value, Stimulated by A23187 (compound 10 μM): 27.5064 ± 29.2861 | Inhibiting ratio of IL-2 transcriptional activation (compound 0.3 μM): 12% | Inhibiting ratio of IL-2 transcriptional activation (compound 1 μM): 30% | Inhibiting ratio of IL-2 transcriptional activation (compound 10 μM): 70%

COc1ccc(OCCCN(CCO)C(C)C)c(C2Sc3cc(Cl)ccc3N2C(C)=O)c1.Cl (single isomer, unassigned; (+)) [Compound 4, (+)-3-acetyl-6-chloro-2-[2-(3-(N-(2-hydroxyethyl)-N-isopropylamino)propoxy)-5-methoxyphenyl]benzothiazoline hydrochloride]
Action on A23187-accelerated transcriptional activation of IL-2 (in words): inhibited transcriptional activation of IL-2 | Inhibition ratio (transcriptional activation of IL-2), Table 2 (compound 10 μM): 38%

CN(C(=O)C(c1ccccc1)c1ccccc1)[C@H](CN1CC[C@H](O)C1)c1ccccc1 [Asimadoline, asimadoline, reference compound]
Inhibition ratio (transcriptional activation of IL-2), Table 2 (compound 10 μM): 19%

COCCN(CCCOc1ccc(OC)cc1C1Sc2cc(Cl)ccc2N1C(C)=O)C(C)C [Compound 5, (+)-3-acetyl-6-chloro-2-[2-(3-(N-isopropyl-N-(2-methoxyethyl)amino)propoxy)-5-methoxyphenyl]benzothiazoline (−)-O,O′-diacetyl-L-tartaric acid salt]
Action on A23187-accelerated transcriptional activation of IL-2 (in words): inhibited transcriptional activation of IL-2 | Inhibition ratio (transcriptional activation of IL-2), Table 2 (compound 10 μM): 72%
